Source: ChEMBL document CHEMBL2439971, “Design, synthesis and antiproliferative evaluation of fluorenone analogs with DNA topoisomerase I inhibitory properties” (Bioorg Med Chem, 2013)
Active and inactive are the calls of the source. The rule behind the calls is not given here.

Columns and labels:
OVCAR-5 = experiment: Cytotoxicity against human OVCAR5 cells at 10 uM after 48 hrs by sulforhodamine B assay relative to control; format: functional
HCT-116 = experiment: Cytotoxicity against human HCT116 cells at 10 uM after 48 hrs by sulforhodamine B assay relative to control; format: functional
MOLT-4 = experiment: Cytotoxicity against human MOLT4 cells at 10 uM after 48 hrs by sulforhodamine B assay relative to control; format: functional
OVCAR-4 = experiment: Cytotoxicity against human OVCAR4 cells at 10 uM after 48 hrs by sulforhodamine B assay relative to control; format: functional
IGROV-1 = experiment: Cytotoxicity against human IGROV1 cells at 10 uM after 48 hrs by sulforhodamine B assay relative to control; format: functional
BT-549 = experiment: Cytotoxicity against human BT549 cells at 10 uM after 48 hrs by sulforhodamine B assay relative to control; format: functional
NCI-H23 = experiment: Cytotoxicity against human NCI-H23 cells at 10 uM after 48 hrs by sulforhodamine B assay relative to control; format: functional
K562 = experiment: Cytotoxicity against human K562 cells at 10 uM after 48 hrs by sulforhodamine B assay relative to control; format: functional
NCI-H226 = experiment: Cytotoxicity against human NCI-H226 cells at 10 uM after 48 hrs by sulforhodamine B assay relative to control; format: functional
786-0 = experiment: Cytotoxicity against human 786-0 cells at 10 uM after 48 hrs by sulforhodamine B assay relative to control; format: functional
SK-MEL-2 = experiment: Cytotoxicity against human SK-MEL-2 cells at 10 uM after 48 hrs by sulforhodamine B assay relative to control; format: functional
DU-145 = experiment: Cytotoxicity against human DU145 cells at 10 uM after 48 hrs by sulforhodamine B assay relative to control; format: functional
SNB-75 = experiment: Cytotoxicity against human SNB75 cells at 10 uM after 48 hrs by sulforhodamine B assay relative to control; format: functional
SW-620 = experiment: Cytotoxicity against human SW620 cells at 10 uM after 48 hrs by sulforhodamine B assay relative to control; format: functional
MDA-MB-435 = experiment: Cytotoxicity against human MDA-MB-435 cells at 10 uM after 48 hrs by sulforhodamine B assay relative to control; format: functional
SF-268 = experiment: Cytotoxicity against human SF268 cells at 10 uM after 48 hrs by sulforhodamine B assay relative to control; format: functional
[1] = Cytotoxicity against human Hs 578T cells at 10 uM after 48 hrs by sulforhodamine B assay relative to control; format: functional
NCI-H322M = experiment: Cytotoxicity against human NCI-H322M cells at 10 uM after 48 hrs by sulforhodamine B assay relative to control; format: functional
PC-3 [2] = experiment: Cytotoxicity against human PC3 cells after 48 hrs by sulforhodamine B assay; format: functional, cell-based; settings: PC-3, 48 h
HL-60(TB) = experiment: Cytotoxicity against human HL-60(TB) cells at 10 uM after 48 hrs by sulforhodamine B assay relative to control; format: functional
TK-10 = experiment: Cytotoxicity against human TK10 cells at 10 uM after 48 hrs by sulforhodamine B assay relative to control; format: functional
U-251 = experiment: Cytotoxicity against human U251 cells at 10 uM after 48 hrs by sulforhodamine B assay relative to control; format: functional
HT-29 = experiment: Cytotoxicity against human HT-29 cells at 10 uM after 48 hrs by sulforhodamine B assay relative to control; format: functional
OVCAR-3 = experiment: Cytotoxicity against human OVCAR3 cells at 10 uM after 48 hrs by sulforhodamine B assay relative to control; format: functional
RPMI-8226 = experiment: Cytotoxicity against human RPMI8226 cells at 10 uM after 48 hrs by sulforhodamine B assay relative to control; format: functional
LOX IMVI = experiment: Cytotoxicity against human LOXIMVI cells at 10 uM after 48 hrs by sulforhodamine B assay relative to control; format: functional
Homo sapiens = organism: Homo sapiens; experiment: Inhibition of telomerase (unknown origin) at 10 uM TRAP assay
NCI-H522 = experiment: Cytotoxicity against human NCI-H522 cells at 10 uM after 48 hrs by sulforhodamine B assay relative to control; format: functional
OVCAR-8 = experiment: Cytotoxicity against human OVCAR8 cells at 10 uM after 48 hrs by sulforhodamine B assay relative to control; format: functional
NCI/ADR-RES = experiment: Cytotoxicity against human NCI/ADR-RES cells at 10 uM after 48 hrs by sulforhodamine B assay relative to control; format: functional
SK-MEL-5 = experiment: Cytotoxicity against human SK-MEL-5 cells at 10 uM after 48 hrs by sulforhodamine B assay relative to control; format: functional
MCF7 = experiment: Cytotoxicity against human MCF7 cells at 10 uM after 48 hrs by sulforhodamine B assay relative to control; format: functional
SK-MEL-28 = experiment: Cytotoxicity against human SK-MEL-28 cells at 10 uM after 48 hrs by sulforhodamine B assay relative to control; format: functional
UO-31 = experiment: Cytotoxicity against human UO31 cells at 10 uM after 48 hrs by sulforhodamine B assay relative to control; format: functional
UACC-257 = experiment: Cytotoxicity against human UACC257 cells at 10 uM after 48 hrs by sulforhodamine B assay relative to control; format: functional
SNB-19 = experiment: Cytotoxicity against human SNB19 cells at 10 uM after 48 hrs by sulforhodamine B assay relative to control; format: functional
[3] = Cytotoxicity against human EKVX cells at 10 uM after 48 hrs by sulforhodamine B assay relative to control; format: functional
ACHN = experiment: Cytotoxicity against human ACHN cells at 10 uM after 48 hrs by sulforhodamine B assay relative to control; format: functional
HCT-15 = experiment: Cytotoxicity against human HCT15 cells at 10 uM after 48 hrs by sulforhodamine B assay relative to control; format: functional
CAKI-1 = experiment: Cytotoxicity against human CAKI-1 cells at 10 uM after 48 hrs by sulforhodamine B assay relative to control; format: functional
SF-539 = experiment: Cytotoxicity against human SF539 cells at 10 uM after 48 hrs by sulforhodamine B assay relative to control; format: functional
SN12C = experiment: Cytotoxicity against human SN12C cells at 10 uM after 48 hrs by sulforhodamine B assay relative to control; format: functional
NCI-H460 = experiment: Cytotoxicity against human NCI-H460 cells at 10 uM after 48 hrs by sulforhodamine B assay relative to control; format: functional
PC-3 [4] = experiment: Cytotoxicity against human PC3 cells at 10 uM after 48 hrs by sulforhodamine B assay relative to control; format: functional
UACC-62 = experiment: Cytotoxicity against human UACC62 cells at 10 uM after 48 hrs by sulforhodamine B assay relative to control; format: functional
Malme-3M = experiment: Cytotoxicity against human MALME-3M cells at 10 uM after 48 hrs by sulforhodamine B assay relative to control; format: functional
T47D = experiment: Cytotoxicity against human T47D cells at 10 uM after 48 hrs by sulforhodamine B assay relative to control; format: functional
M14 = experiment: Cytotoxicity against human M14 cells at 10 uM after 48 hrs by sulforhodamine B assay relative to control; format: functional
A549 = experiment: Cytotoxicity against human A549 cells at 10 uM after 48 hrs by sulforhodamine B assay relative to control; format: functional
MDA-MB-468 = experiment: Cytotoxicity against human MDA-MB-468 cells at 10 uM after 48 hrs by sulforhodamine B assay relative to control; format: functional
MDA-MB-231 = experiment: Cytotoxicity against human MDA-MB-231 cells at 10 uM after 48 hrs by sulforhodamine B assay relative to control; format: functional
RXF 393 = experiment: Cytotoxicity against human RXF393 cells at 10 uM after 48 hrs by sulforhodamine B assay relative to control; format: functional
SF-295 = experiment: Cytotoxicity against human SF295 cells at 10 uM after 48 hrs by sulforhodamine B assay relative to control; format: functional
SR = experiment: Cytotoxicity against human SR cells at 10 uM after 48 hrs by sulforhodamine B assay relative to control; format: functional
CCRF-CEM = experiment: Cytotoxicity against human CCRF-CEM cells at 10 uM after 48 hrs by sulforhodamine B assay relative to control; format: functional
HOP-62 = experiment: Cytotoxicity against human HOP62 cells at 10 uM after 48 hrs by sulforhodamine B assay relative to control; format: functional
HCC 2998 = experiment: Cytotoxicity against human HCC2998 cells at 10 uM after 48 hrs by sulforhodamine B assay relative to control; format: functional
KM12 = experiment: Cytotoxicity against human KM12 cells at 10 uM after 48 hrs by sulforhodamine B assay relative to control; format: functional
COLO 205 = experiment: Cytotoxicity against human COLO205 cells at 10 uM after 48 hrs by sulforhodamine B assay relative to control; format: functional

Structure (SMILES): O=C(CN1CCCC1)Nc1ccc2c(c1)C(=O)c1cc(NC(=O)CN3CCCC3)ccc1-2
- Activity (OVCAR-5): 128.57%
- Activity (HCT-116): 79.74%
- Activity (MOLT-4): 61.26%
- Activity (OVCAR-4): 71.07%
- Activity (IGROV-1): 86.73%
- Activity (BT-549): 101.36%
- Activity (NCI-H23): 93.89%
- Activity (K562): 68.94%
- Activity (NCI-H226): 104.39%
- Activity (786-0): 90.88%
- Activity (SK-MEL-2): 106.76%
- Activity (DU-145): 83.47%
- Activity (SNB-75): 88.15%
- Activity (SW-620): 68.12%
- Activity (MDA-MB-435): 84.99%
- Activity (SF-268): 107.06%
- Activity [1]: 100.68%
- Activity (NCI-H322M): 73.45%
- IC50 (PC-3 [2]): 7.78 µM
- Activity (HL-60(TB)): 84.5%
- Activity (TK-10): 91.73%
- Activity (U-251): 81.2%
- Activity (HT-29): 19.04%
- Activity (OVCAR-3): 113.24%
- Activity (RPMI-8226): 78.34%
- Activity (LOX IMVI): 90.25%
- inhibition (Homo sapiens): inactive
- Activity (NCI-H522): 72.46%
- Activity (OVCAR-8): 69.01%
- Activity (NCI/ADR-RES): 93.68%
- Activity (SK-MEL-5): 102.03%
- Activity (MCF7): 62.7%
- Activity (SK-MEL-28): 103.08%
- Activity (UO-31): 69.71%
- Activity (UACC-257): 106.11%
- Activity (SNB-19): 96.18%
- Activity [3]: 100.27%
- Activity (ACHN): 102.77%
- Activity (HCT-15): 99.02%
- Activity (CAKI-1): 91.43%
- Activity (SF-539): 99.41%
- Activity (SN12C): 87.69%
- Activity (NCI-H460): 88.56%
- Activity (PC-3 [4]): 85.69%
- Activity (UACC-62): 103.81%
- Activity (Malme-3M): 130.28%
- Activity (T47D): 105.79%
- Activity (M14): 103.87%
- Activity (A549): 76.89%
- Activity (MDA-MB-468): 99.42%
- Activity (MDA-MB-231): 73.88%
- Activity (RXF 393): 88.07%
- Activity (SF-295): 86.51%
- Activity (SR): 74.15%
- Activity (CCRF-CEM): 68.3%
- Activity (HOP-62): 88.02%
- Activity (HCC 2998): 90.44%
- Activity (KM12): 85.82%
- Activity (COLO 205): 89.07%

Structure (SMILES): O=C(CCN1CCOCC1)Nc1ccc2c(c1)C(=O)c1cc(NC(=O)CCN3CCOCC3)ccc1-2
- Activity (OVCAR-5): 103.99%
- Activity (HCT-116): 114.57%
- Activity (MOLT-4): 94.98%
- Activity (OVCAR-4): 105.22%
- Activity (IGROV-1): 95.95%
- Activity (BT-549): 113.53%
- Activity (NCI-H23): 94.62%
- Activity (K562): 99.03%
- Activity (NCI-H226): 109.63%
- Activity (786-0): 110.24%
- Activity (SK-MEL-2): 131.96%
- Activity (DU-145): 117.55%
- Activity (SNB-75): 82.97%
- Activity (SW-620): 106.16%
- Activity (MDA-MB-435): 104.2%
- Activity (SF-268): 115.57%
- Activity [1]: 101.67%
- Activity (NCI-H322M): 109.97%
- IC50 (PC-3 [2]): > 30 µM
- Activity (HL-60(TB)): 112.24%
- Activity (TK-10): 112.26%
- Activity (U-251): 94.41%
- Activity (HT-29): 111.58%
- Activity (OVCAR-3): 121.23%
- Activity (RPMI-8226): 99.87%
- Activity (LOX IMVI): 89.4%
- inhibition (Homo sapiens): inactive
- Activity (NCI-H522): 102.66%
- Activity (OVCAR-8): 103.76%
- Activity (NCI/ADR-RES): 102.84%
- Activity (SK-MEL-5): 102.76%
- Activity (MCF7): 88.76%
- Activity (SK-MEL-28): 104.41%
- Activity (UO-31): 86.58%
- Activity (UACC-257): 113.13%
- Activity (SNB-19): 110.22%
- Activity [3]: 99.88%
- Activity (ACHN): 101.15%
- Activity (HCT-15): 108.42%
- Activity (CAKI-1): 96.99%
- Activity (SF-539): 107.54%
- Activity (SN12C): 104.8%
- Activity (NCI-H460): 105.97%
- Activity (PC-3 [4]): 113.85%
- Activity (UACC-62): 122.9%
- Activity (Malme-3M): 118.44%
- Activity (T47D): 101.34%
- Activity (M14): 127.51%
- Activity (A549): 98.13%
- Activity (MDA-MB-468): 101.73%
- Activity (MDA-MB-231): 122.26%
- Activity (RXF 393): 99.09%
- Activity (SF-295): 105.19%
- Activity (SR): 98.5%
- Activity (CCRF-CEM): 92.01%
- Activity (HOP-62): 115.73%
- Activity (HCC 2998): 100.06%
- Activity (KM12): 105.8%
- Activity (COLO 205): 105.48%
